Data as given in patent publication US10577406B2, “FKBP-L polypeptides and uses in angiogenesis-mediated disorders” (ALMAC DISCOVERY LIMITED, priority 2006, dated 2020).
Read-outs that look alike come from different tables or passages of the source.

Columns and labels:
rat aortic ring = assay type: cell-based, Male Wistar rats
Procedure: Male Wistar rats were euthanised and the thoracic aorta was aseptically removed and sectioned into 1 cm thick rings. The rings were washed ten times in sterile medium to remove any bacteria and embedded into Matrigel on 24 well plates. The wells were supplemented with 2 ml of medium and increasing concentrations of full-length His-tagged recombinant FKBP-L protein (SEQ ID 1). The plate was incubated for 8 days and post incubation the Matrigel and rings were fixed in 4% PBS buffered paraformaldehyde and stored in PBS. The extent of vessel development was blindly assessed microscopically by an independent investigator and quantified using a calibrated eyepiece graticule (1 mm/100 μm graduation) at 20× magnification (Olympus BX 50). The extent of vessel length, maximum vessel length and number of vessels in each field of view was measured and compared to time matched sham controls and the percent (%) inhibition calculated. Male Wistar rats were euthanised and the thoracic aorta was aseptically removed and sectioned into 1 cm thick rings. The rings were washed ten times in sterile medium to remove any bacteria and embedded into Matrigel on 24 well plates. The wells were supplemented with 2 ml of medium and increasing concentrations of FKBP-L 24mer (SEQ ID NO: 10) and FKBP-L 1-57mer (SEQ ID NO: 6) and recombinant FKBP-L (SEQ ID NO:1). The plate was blindly assessed by an independent investigator and quantified using a calibrated eyepiece graticule (1 mm/100 μm graduation) at 20× magnification (Olympus BX 50). The extent of vessel length, maximum vessel length and number of vessels in each field of view was measured and compared to time matched sham controls and the % inhibition calculated. In order to determine whether the FKBP-L 24mer exerted a permanent or static effect on endothelial cell sprouting the rat aortic ring assay was used. Male Wistar rats were euthanised and the thoracic aorta was aseptically removed and sectioned into 1 cm thick rings. The rings were washed ten times in sterile medium to remove any bacteria and embedded into Matrigel on 24 well plates. The wells were supplemented with 2 ml of medium. The plates were incubated for up to 15 days. Each day the Matrigel rings were photographed and returned to their incubator. Two further experiments were carried out: (A) addition of FKBP-L 24mer to the medium after the vessels had grown for seven days; and (B) addition of FKBP-L 24mer to the medium at the initial embedding stage, with subsequent removal after seven days and replacement with fresh medium for a further seven days. The extent of vessel development was quantified using a calibrated eyepiece graticule (1 mm/100 μm graduation) at 20× magnification (Olympus BX 50), and measured electronically using Lucia imaging software. Vessel length was measured and compared to time matched sham controls and the percent (%) inhibition calculated.

[1] = test system: bFGF-induced vessels in subcutaneously implanted polyether sponges; experiment: mouse sponge assay of angiogenesis in vivo; design: species or system C57 black mice; details: for reduction in vessel number versus bFGF alone: day 21
Procedure: In these experiments, polyether sponges were subcutaneously implanted in C57 black mice and injected on alternate days with 10 ng bovine fibroblast growth factor (bFGF) or 10 ng bFGF+5 μg full length His-tagged recombinant FKBP-L polypeptide (SEQ ID NO: 1). After 14 days of treatment, sponges were harvested, sectioned and stained with heamatoxylin and eosin.
This experiment evalulated the ability of the FKBP-L 24mer to inhibit angiogenesis using the mouse sponge assay. Polyether sponges were subcutaneously implanted in C57 black mice on day 0 and injected on alternate days with (a) 10 ng bFGF control (3 mice) (b) 10 ng bovine fibroblast growth factor (bFGF)+5 μg full-length his-tagged recombinant FKBPL (equivalent to 3.2×10^−6 M in vitro) (3 mice) (c) 10 ng bFGF+0.35 μg FKBPL 24mer (molar equivalent of 5 μg full-length recombinant FKBPL) (3 mice) or (d) 0.11 ng FKBPL 24mer (equivalent to 10^−9 M in vitro) (3 mice).
All mice were sacrificed on day 21. Sponges were removed, fixed and paraffin embedded. Five micron sections were stained with haematoxylin and eosin. Vessels were blindly counted by 3 independent assessors using ×40 magnification in 10 fields per section. The average count per sponge/mouse was then plotted for each assessor.

[2] = test system: MDA231 (breast tumor cell line; CD44 +ve); experiment: tumor cell migration, wound closure assay, MDA231; assay type: cell-based
Procedure: In these experiments, the effect of recombinant FKBP-L on tumor cell migration was assessed. The in vitro migration assay used in these studies is a modified version of the method described by Ashton et al (1999) see supra. PC3, MDA231, and HT29 tumor cells were plated into individual chambers on a glass slide and grown to 90% confluence overnight. The medium was removed and the monolayers wounded. The monolayer was re-supplemented with fresh medium and the required volume of His-tagged recombinant FKBP-L protein (SEQ ID NO: 1) was added to give the final concentrations shown. The monolayers were incubated for 24 hours and then fixed in 4% PBS buffered paraformaldehyde.
The extent of “wound” closure was blindly assessed microscopically by an independent investigator and quantified using a calibrated eyepiece graticule (1 mm/100 μm graduation) at 20× magnification (Olympus BX 50). The extent of closure in the FKBP-L treated slides was compared to time matched sham-treated controls and the percent inhibition of wound closure compared to time matched controls calculated. […]
The extent of “wound” closure was blindly assessed microscopically by an independent investigator and quantified using a calibrated eyepiece graticule (1 mm/100 μm graduation) at 20× magnification (Olympus BX 50). […]

| Molecule | IC50 (rat aortic ring) [nM] | vessel development after addition at day seven (rat aortic ring; 10^−9 M added after vessels had developed for seven days, vs time matched controls) | vessel development, exposure from initial embedding (rat aortic ring; medium supplemented from embedding, seven days) | vessel development after removal of the peptide (rat aortic ring; supplemented medium removed after seven days, fresh medium added) | reduction in vessel number versus bFGF alone ([1]; 10 ng bFGF + 0.35 μg on alternate days) [%] | reduction in vessel number versus bFGF alone ([1]; lowest dose (0.11 ng, equivalent to 10^−9 M in vitro) on alternate days) [%] | effect on tumor cell migration ([2]; MDA-231, 10^−14-10^−7 M, 24 h) | inhibition of number of vessels formed (rat aortic ring; 500 ngml^−1 (optimal), 8 days) [%] | inhibition of maximum vessel length compared to time matched controls (rat aortic ring; 1000 ngml^−1, 8 days) [%] | inhibition of mean vessel length compared to time matched controls (rat aortic ring; 1000 ngml^−1, 8 days) [%] | IC50 (rat aortic ring; read-out: IC50, number of vessels) [nM] | reduction in vessel number versus bFGF alone ([1]; 10 ng bFGF + 5 μg on alternate days) [%] | vessel counts versus bFGF alone ([1]; 10 ng bFGF+5 μg on alternate days, 14 days, p=0.0008) | effect on tumor cell migration ([2]; MDA231, 24 hours) |
| --- | --- | --- | --- | --- | --- | --- | --- | --- | --- | --- | --- | --- | --- | --- |
| H-QIRQQPRDPPTETLELEVSPDPAS-OH [FKBP-L 24mer] | 0.0002 | complete inhibition of vessel development | almost completely inhibited vessel development | continued growth of vessels | 80 | 70 | can inhibit |  |  |  |  |  |  |  |
| full length recombinant FKBP-L: recombinant full length his-tagged FKBP-L protein (SEQ ID NO: 1) expressed in BL21 (DE3) (protein, listed as Homo sapiens, His tag) MRGSHHHHHHGMASMTGGQQMGRDLYDDDDKDRWGSMETPPVNTIGEKDTSQPQQEWEKNLRENLDSVIQIRQQPRDPPTETLELEVSPDPASQILEHTQGAEKLVAELEGDSHKSHGSTSQMPEALQASDLWYCPDGSFVKKIVIRGHGLDKPKLGSCCRVLALGFPFGSGPPEGWTELTMGVGPWREETWGELIEKCLESMCQGEEAELQLPGHTGPPVGLTLASFTQGRDSWELETSEKEALAREERARGTELFRAGNPEGAARCYGRALRLLLTLPPPGPPERTVLHANLAACQLLLGQPQLAAQSCDRVLEREPGHLKALYRRGVAQAALGNLEKATADLKKVLAIDPKNRAAQEELGKVVIQGKNQDAGLAQGLRKMFG |  |  |  |  |  |  |  | 65 | 70 | 63 | 1.56 | 50 | significantly fewer vessels | inhibits tumor cell migration in a dose-dependent manner |
